Results published in article PMC6409975, “Functional Characterization of OXYL, A SghC1qDC LacNAc-specific Lectin from The Crinoid Feather Star Anneissia Japonica” (Marine Drugs, 2019).
Converted amounts (≈) assume the structure as drawn.

Assays:
OXYL [1] = molecular target: T1, OXYL (Anneissia japonica, UniProt A0A482DHP7); assay: hemagglutination inhibition, rabbit erythrocytes; format: binding; settings: lectin titer 16; TBS with 0.2% Triton X-100; room temperature, 1 h; glutaraldehyde-fixed trypsinized erythrocytes
T1 construct: signal peptide 1-18 removed; mainly tetramer; HiLyte Fluor 555-labelled for glycan array
Text: hemagglutination inhibition, rabbit erythrocytes on OXYL

OXYL [2] = molecular target: T1, OXYL; assay: glycan array, fluorescence-labelled lectin; format: binding; settings: immobilised glycan (1 mM spotted); HiLyte Fluor 555-labelled OXYL 0-20 μg/mL; 4 °C overnight; weaker than LNnT

T1 sequence (A0A482DHP7 entry or part of it): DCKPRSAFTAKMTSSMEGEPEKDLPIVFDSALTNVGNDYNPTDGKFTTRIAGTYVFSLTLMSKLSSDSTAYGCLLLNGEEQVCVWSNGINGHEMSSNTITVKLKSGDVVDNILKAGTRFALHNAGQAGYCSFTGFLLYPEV

Minimum inhibitory conc. (OXYL [1]) [mM]	SMILES	glycan array, fluorescence-labelled lectin (OXYL [2])
3.13 (≈ 1200 µg/mL)	CC(=O)N[C@H]1C(O)O[C@H](CO)[C@@H](O[C@@H]2O[C@H](CO)[C@H](O)[C@H](O)[C@H]2O)[C@@H]1O (some centres unmarked) [N-acetyllactosamine]	
	CC(=O)N[C@H]1[C@H]([C@H](O)[C@H](O)CO)O[C@@](O[C@H]2[C@@H](O)[C@@H](CO)O[C@@H](O[C@H]3[C@H](O)[C@@H](NC(C)=O)C(O)O[C@@H]3CO)[C@@H]2O)(C(=O)O)C[C@@H]1O (some centres unmarked) [compound 2, S3LN]	OXYL could bind to 3-sialylated LacNAc more strongly than to 6-sialylated LacNAc
